In patent publication US20060040870A1, “Enhancement of apoptosis by caspase-9 inhibitors” (priority 2004, published 2006):
The star is where a group is joined. Cbz = O=C(OCc1ccccc1)*; CH2F = FC*

What was measured:
[1] = tested on: BLIN-4E cells; assay: Apoptosis by Annexin V staining and flow cytometry, BLIN-4E; type: cell-based, human; conditions: 50 μM, 18 hours
Procedure: (§1) FIG. 4 is a pair of graphs showing the effect of […] on various cell lines, as determined by Annexin V staining and flow cytometry. The cells included the B-cell precursor ALL cell lines […], and NALM-6, the RAMOS, RAJI, and DAUDI Burkitt lymphoma cell lines, the CCRF-CEM, JURKAT, and H9 T lymphoma cell lines, the K-562 erythroleukemia cell line, and resting or activated (i.e., CD3/CD28 cross-linked) normal human T cells. […] Flow cytometry. Quantitation of apoptotic events was conducted using a FACS Calibur (BD Immunocytometry Systems). All analyses were conducted on cells with lymphoid light scatter characteristics (i.e., low to medium forward scatter and low 90° side scatter). iii. Annexin V. […] Cells were stained according to the manufacturers recommendations.

[2] = tested on: BLIN-2 cells; assay: Apoptosis by Annexin V staining and flow cytometry, BLIN-2; type: cell-based, human; conditions: BLIN-2, 50 μM, 18 hours
Procedure: Flow cytometry. Quantitation of apoptotic events was conducted using a FACS Calibur (BD Immunocytometry Systems). All analyses were conducted on cells with lymphoid light scatter characteristics (i.e., low to medium forward scatter and low 90° side scatter).
iii. Annexin V. FITC-labeled Annexin V (BD Pharmingen, San Diego, Calif.) was used to detect external phosphatidylserine residues appearing on the external surface of early apoptotic cells (Koopman Blood. 1994;84:1415-1420). Cells were stained according to the manufacturers recommendations.
General experimental strategy. BLIN cell lines were removed from fibroblast monolayers, washed once and resuspended to 7.5×10^5/ml in X-VIVO 10. Two hundred μL of resuspended cells were added to 96-well flat-bottom microtiter plates (ISC Bioexpress, Kaysville, Vt.), followed by 0.5-1.0 μL of caspase inhibitors in DMSO. An identical volume of DMSO alone was added to separate wells as a vehicle control. This final DMSO concentration of 0.25-0.5% vol/vol had no adverse affect on any of the BLIN cell lines. At the indicated times the entire content of individual wells was harvested and stained in the fluorescent protocols described above.
The inventors carried out experiments to test the influence of specific amino acid substitutions on the proapoptotic activity Z-LEHD-fmk. […]

[3] = tested on: activated (CD3/CD28 cross-linked) normal human T cells; assay: Apoptosis by Annexin V staining and flow cytometry, activated normal T cells; type: cell-based; conditions: 50 μM, 18 hours
Procedure: as §1

[4] = tested on: leukemic cell lines; assay: Staurosporine response of panel of leukemic cell lines, Annexin V; type: cell-based; conditions: staurosporine plus 50 μM C9i; leukemic cells that responded to C9i alone
Procedure: as §1, with “recommendations. The inventors expanded their analysis of […] to other leukemic cell lines. […] The JURKAT T lymphoma cell line was also sensitive. In contrast, the RAJI and DAUDI Burkitt lymphoma cell lines, the H9 T lymphoma cell line, and the K-562 erythroleukemia cell line were insensitive to […]. […] The inventors also tested whether […] would potentiate the apoptotic effect of the widely used serine/threonine kinase inhibitor staurosporine. […] Thus, the leukemic cell lines were generally responsive to both […] and staurosporine, or responsive to neither.” for “recommendations.”

[5] = tested on: caspase-9-deficient cells (BLIN-4L, RAMOS); assay: Annexin V apoptosis in caspase-9 siRNA-treated BLIN-4L and RAMOS cells; type: cell-based, human; conditions: BLIN-4L and RAMOS electroporated with caspase-9 siRNA, 50 μM, 8 hours
Procedure: This technology employs a double algorithm. […] In preliminary studies using FITC-conjugated control siRNA (Dharmacon), we determined that the BLIN cell lines could be transfected to >80% efficiency by electroporation. […] BLIN-4L were then diluted into 4.8 ml of X-VIVO 10 supplemented with 10% FBS and 5 ng/ml of IL-7.
The inventors performed further studies to determine whether caspase-9 can be completely knocked out by means of RNA interference (RNAi). […] The inventors discovered that C9i induces apoptosis in caspase-9-deficient cells. BLIN-4L (FIG. 7A) and RAMOS (FIG. 7B) cells were electroporated with 8 μM SMARTpool (Dharmacon Inc.) caspase-9 siRNA or control siRNA and allowed to recover for 3 days in X-VIVO/10% FCS supplemented with 5 ng/ml IL-7 (BLIN-4L), or RPMI/10% FCS (RAMOS). After 3 days, the electroporated populations were assayed for Annexin V binding (to determine background levels of apoptosis), and then cultured in DMSO or 50 μM C9i for 8 hours. The cells were then harvested, stained with Annexin V, and analyzed by flow cytometry. […] Thus, no caspase-9 was present at all in the cells. […] Thus, C9i clearly is acting on another molecule in the cell besides just caspase-9. Also, one can conclude that caspase-9 is not necessary for C9i-induced apoptosis to occur.

[6] = tested on: JURKAT T lymphoma cells; assay: Fas response of JURKAT T lymphoma cells; type: cell-based; conditions: 50 μM
[7] = tested on: DAUDI Burkitt lymphoma cell line; assay: Apoptosis by Annexin V staining and flow cytometry, DAUDI; type: cell-based; conditions: 50 μM, 18 hours
Procedure: as §1

## Z-LEHD-fmk (Cbz-LEHD-CH2F; SMILES CC(C)C[C@H](NC(=O)OCc1ccccc1)C(=O)N[C@@H](CCC(=O)O)C(=O)N[C@@H](Cc1c[nH]cn1)C(=O)N[C@@H](CC(=O)O)C(=O)CF) [C9i]
[1]
  sensitivity (fold-increase in Annexin V+ cells vs DMSO): sensitive
[2]
  sensitivity (fold-increase in Annexin V+ cells vs DMSO): less sensitive than the others
[3]
  sensitivity (fold-increase in Annexin V+ cells vs DMSO): marginally sensitive
[4]
  potentiation of the apoptotic effect of staurosporine: enhanced the staurosporine response
[5]
  induction of apoptosis in caspase-9-deficient cells (Annexin V): still induced apoptosis
[6]
  Fas response of JURKAT T lymphoma cells: blocked the Fas response
[7]
  sensitivity (fold-increase in Annexin V+ cells vs DMSO): insensitive
